From BindingDB's records for patent US11718589 (Case Western Reserve University, 2023) come the findings set out here.

The target in the experiment is T1, 15-hydroxyprostaglandin dehydrogenase [NAD(+)] (Homo sapiens, UniProt P15428).
T1 sequence (P15428 whole entry): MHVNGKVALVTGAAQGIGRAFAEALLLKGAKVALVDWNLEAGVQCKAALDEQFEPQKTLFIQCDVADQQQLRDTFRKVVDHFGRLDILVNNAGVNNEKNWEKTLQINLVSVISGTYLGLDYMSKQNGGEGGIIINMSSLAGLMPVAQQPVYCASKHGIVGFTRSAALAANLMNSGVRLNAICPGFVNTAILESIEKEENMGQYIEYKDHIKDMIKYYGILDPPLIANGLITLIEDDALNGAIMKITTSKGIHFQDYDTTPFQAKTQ
Description: In Vitro Assay.

On to `CCCC[S+]([O-])c1cc2nc(-c3ccc(OC)cc3)cc(C(F)(F)F)n2n1` (stereo unspecified) [US11718589, Compound 3a], for which half-maximal inhibition (IC50) was put at 35.5 nM. In other words, the double-digit nanomolar range.
As for `CCCC[S+]([O-])c1cc2nc(-c3ccc(OC)cc3)cc(-c3ccccc3)n2n1` (stereo unspecified) [US11718589, Compound 5a], the figure is 39 nM.
The figure for `CCCCS(=O)(=O)c1cc2nc(-c3ccc(OC)cc3)cc(C(F)(F)F)n2n1` [US11718589, Compound 4a] is over 2500 nM.
In turn, `CCCC[S+]([O-])c1cc2nc(-c3ccc(OC)cc3)cc(-c3ccc(F)cc3)n2n1` (stereo unspecified) [US11718589, Compound 6a] gave an IC50 of 59 nM.
As for `CCNC(=O)c1cc2nc(-c3ccc(OC)cc3)cc(C(F)(F)F)n2n1` [US11718589, Compound 7a], the IC50 was over 2500 nM.
For the molecule `COc1ccc(-c2cc(C(F)(F)F)n3nc(C(=O)NCCO)cc3n2)cc1` [US11718589, Compound 12a], the IC50 is over 2500 nM.

In general, IC50 refers to the concentration that inhibits the measured activity by half. Low readings indicate higher potency, high ones lower potency.
